Where “and” joins values, the source holds several entries; their conditions need not be identical. Identical values can stand only once. Like-named read-outs stand apart in the source and are kept apart here. Non-standard residues stand in square brackets, D forms with d. Residues, ends and D or L forms follow the SMILES beside them. *: point of attachment. Dolaproine = CO[C@@H]([C@@H]1CCCN1)[C@@H](C)C(=O)O; Dil = CC[C@H](C)[C@H](NC)[C@@H](CC(=O)O)OC; X1 = C[C@@H](N*)[C@@H](O)c1ccccc1; NMeV = CN[C@H](C(=O)O)C(C)C
Experiments:
C4-2 cells [1] = assay: Cytotoxicity of anti-STEAP2 ADCs, payloads and reference compounds in C4-2 cells; format: cell-based, human; settings: for IC50: top concentration 100 nM, 3-fold serial dilution; for % kill: at maximum concentration tested
Description: (§1) To test the ability of the disclosed tubulysin payloads to kill human cell lines, an in vitro cytotoxicity assay was performed. In vitro cytotoxicity of the disclosed payloads, as well as reference compounds, were evaluated using the CellTiter-Glo Assay Kit (Promega, Cat #G7573), in which the quantity of ATP present is used to determine the number of viable cells in culture. For the assay, C4-2, HEK293, or T47D cells were seeded at 4000 cells/well on Nunclon white 96-well plates in complete growth medium (DME high glucose:Ham's F12 at 4:1, 10% FBS, 100 units/ml Penicillin, 100 ug/ml streptomycin, 53 ug/ml glutatmine, 10 ug/ml insulin, 220 ng/ml biotin, 12.5 pg/ml T3, 12.5 ug/ml Adenine, 4 ug/ml transferrin for C42 cells; DME high glucose, 10% FBS, 100 units/ml Penicillin, 100 ug/ml streptomycin, 53 ug/ml glutatmine for HEK293; RPMI, 10% FBS, 100 units/ml Penicillin, 100 ug/ml streptomycin, 53 ug/ml glutatmine, 10 ug/ml insulin, 10 mM HEPEs, 200 nM Sodium Pyruvate for T47D cells) and grown overnight at 37° C. in 5% CO2. For cell viability curves, 1:3 serially diluted payloads were added to the cells at final concentrations ranging from 100 nM to […], including a no treatment control group, and were then incubated for 5 days. After the 5-day incubation, cells were incubated at room temperature with 100 μL of CellTiter-Glo reagents for 10 minutes. Relative luminescence units (RLU) were determined on a Victor plate reader (PerkinElmer). The IC50 values were determined from a four-parameter logistic equation over a 10-point response curve (GraphPad Prism). All IC50 values are expressed in molar (M) concentration. The percent cell killing (% kill) at the maximum concentration tested was estimated from the following formula (100−% viable cells). Averages±standard deviation (SD) are included where replicate experiments were performed.
To further test the ability of the disclosed tubulysin payloads, reference compounds, and antibody drug conjugates using these payloads, a cytotoxicity assay was performed using C4-2 cells as described in this example (see above). For these studies, anti-STEAP2 antibodies were conjugated to select tubulysins payloads, and the compounds were tested at concentrations starting at 100 nM with 3-fold serial dilution. All IC50 values are expressed in nM concentration and the percent cell killing at the maximum concentration tested was estimated from the following formula (100−% viable cells).

C4-2 cells [2] = assay: Cell-based killing assay of payloads (CellTiter-Glo), C4-2 cells; parameters: species or system human; settings: 5-day incubation; for IC50: average ± SD where replicates; for C4-2 % Kill: at maximum concentration tested (100 − % viable cells)
Procedure, shortened: (§2)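 Cells plated at 4000/well in line-specific complete medium, grown overnight, then exposed to 1:3 serial dilutions of payload (100 nM to […]) for 5 days. ATP-based CellTiter-Glo luminescence read; IC50 from four-parameter logistic 10-point fit, and % kill at top concentration as 100 − % viable.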

MES-SA/MX2 cells = assay: Cytotoxicity in panel of MDR cell lines, MES-SA/MX2 (72 h and 144 h); format: cell-based, human
Procedure, shortened: (§3)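 Viability was measured as ATP luminescence (CellTiter-Glo) after 72 h and 144 h payload exposure, using 1:3 dilution series. Each line had 1000 cells/well: H69AR in RPMI with 20% FBS, HCT-15 and HL60/MX2 in RPMI with 10% FBS, and MES-SA/MX2 in 1:1 Waymouth's:McCoy's with 10% FBS. Values are four-parameter logistic IC50 and % kill (100 − % viable) at the highest dose.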

T47D cells = assay: Cell-based killing assay of payloads (CellTiter-Glo), T47D cells; parameters: species or system human; settings: 5-day incubation
Procedure, shortened: as §2

HEK293 cells = assay: Cell-based killing assay of payloads (CellTiter-Glo), HEK293 cells; parameters: species or system human; settings: 5-day incubation
Procedure, shortened: as §2

HCT15 cells = assay: cells; format: cell-based, human; settings: for HCT-15 + verapamil % Kill / IC50 / HCT-15 % Kill: HCT15 cells; for HCT-15 + verapamil % Kill / HCT-15 % Kill: maximum % cell killing
Procedure, shortened: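 HCT15 colorectal carcinoma cells, 1000 per well in RPMI/10% FBS, with or without 5 ug/mL verapamil, exposed to 1:3 serially diluted payloads for 5 days at 37 °C. Viability measured by CellTiter-Glo ATP luminescence; IC50 from four-parameter logistic fit of a 10-point curve, % kill at top concentration.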

HL60/MX2 cells = assay: Cytotoxicity in panel of MDR cell lines, HL60/MX2 (72 h and 144 h); format: cell-based, human
Procedure, shortened: as §3

H69AR cells = assay: Cytotoxicity in panel of MDR cell lines, H69AR (72 h and 144 h); format: cell-based, human
Procedure, shortened: as §3

HCT15/PRLR cells = assay: Cytotoxicity of anti-PRLR tubulysin ADCs and payloads in HCT15/PRLR cells with or without Verapamil; format: cell-based, human; settings: for IC50: Homo sapiens, HCT-15
Description: as §1
Bioassays were developed to assess the efficacy of an anti-PRLR antibody conjugated with the disclosed tubulysin payloads and reference payloads. It was developed to assess the activity of tubulysin payloads after internalization of an anti-PRLR-tubulysin ADC into cells, release of the payload, and subsequent cytotoxicity. For this assay, a HCT15 line was engineered to express human full length PRLR (accession #NP_000940.1). The resulting stable cell line is referred to herein as HCT15/PRLR. In vitro cytotoxicity of the disclosed payloads, reference compounds, and tested ADCs were evaluated similarly as described in this example using HCT15/PRLR cells with or without […] of Verapamil diluted in normal culture medium. The compounds were tested at concentrations starting at 100 nM with 3-fold serial dilution. All IC50 values are expressed in nM concentration and the percent cell killing (% kill) at the maximum concentration tested was estimated from the following formula (100−% viable cells).

HCT-15 cells = assay: Cytotoxicity in panel of MDR cell lines, HCT-15 (72 h and 144 h); format: cell-based, human
Procedure, shortened: as §3

[3] = at maximum concentration tested
[4] = with 5 ug/mL Verapamil, read-out: HCT-15 + verapamil IC50

## C#CCCCCN(C(=O)[C@@H](NC(=O)[C@H]1CCCCN1C)[C@@H](C)CC)[C@H](C[C@@H](OC(C)=O)c1nc(C(=O)N[C@@H](Cc2ccc(N)cc2)CC(C)(C)C(=O)O)cs1)C(C)C [IVd, (4S)-4-({2-[(1R,3R)-1-(Acetyloxy)-3-[(2S,3S)—N-(hex-5-yn-1-yl)-3-methyl-2-{[(2R)-1-methylpiperidin-2-yl]formamido}pentanamido]-4-methylpentyl]-1,3-thiazol-4-yl}formamido)-5-(4-aminophenyl)-2,2-dimethylpentanoic acid]
C4-2 cells [1]; Homo sapiens
  IC50: 0.022 nM
C4-2 cells [1]
  % kill: 99%
C4-2 cells [2]; Homo sapiens, C4-2, 120 h
  IC50: 0.0164 nM
C4-2 cells [2]
  C4-2 % Kill: 93.7 ± 1.8%
MES-SA/MX2 cells; 72 h incubation
  MES-SA/MX2 % Kill 72 h: 99.5%
MES-SA/MX2 cells; 144 h incubation
  MES-SA/MX2 % Kill 144 h: 100%
MES-SA/MX2 cells; Homo sapiens, 72 h incubation, read-out: MES-SA/MX2 IC50 72 h
  IC50: 0.0541 nM
MES-SA/MX2 cells; Homo sapiens, 144 h incubation, read-out: MES-SA/MX2 IC50 144 h
  IC50: 0.13 nM
T47D cells; Homo sapiens, T47D, 120 h
  IC50: 0.035 nM
T47D cells; [3]
  T47D % Kill: 84.5%
HEK293 cells; Homo sapiens, HEK293, 120 h
  IC50: 0.0572 nM
HEK293 cells; [3]
  HEK293 % Kill: 85.4%
HCT15 cells; with 5 ug/mL Verapamil
  HCT-15 + verapamil % Kill: 97.7 ± 1.8%
HCT15 cells; [4]
  IC50: 0.0407 nM
HCT15 cells; without Verapamil
  HCT-15 % Kill: 98.2 ± 0.5%
HCT15 cells; Homo sapiens, HCT-15, without Verapamil, read-out: HCT-15 IC50
  IC50: 0.057 nM
HL60/MX2 cells; 72 h incubation
  HL60/MX2 % Kill 72 h: 98.6%
HL60/MX2 cells; 144 h incubation
  HL60/MX2 % Kill 144 h: 99.9%
HL60/MX2 cells; Homo sapiens, 72 h incubation, read-out: HL60/MX2 IC50 72 h
  IC50: < 0.015 nM
HL60/MX2 cells; Homo sapiens, 144 h incubation, read-out: HL60/MX2 IC50 144 h
  IC50: < 0.015 nM
H69AR cells; 72 h incubation
  H69AR % Kill 72 h: 96.9%
H69AR cells; 144 h incubation
  H69AR % Kill 144 h: 99.5%
H69AR cells; Homo sapiens, 72 h incubation, read-out: H69AR IC50 72 h
  IC50: 0.0564 nM
H69AR cells; Homo sapiens, 144 h incubation, read-out: H69AR IC50 144 h
  IC50: 0.133 nM
HCT15/PRLR cells; with Verapamil, read-out: IC50 (nM) on HCT15/PRLR w/ Verapamil
  IC50: 0.015 nM
HCT15/PRLR cells; without Verapamil, read-out: IC50 (nM) on HCT15/PRLR w/o Verapamil
  IC50: 0.037 nM
HCT15/PRLR cells; with Verapamil, at maximum concentration tested
  % kill on HCT15/PRLR w/ Verapamil: 99%
HCT15/PRLR cells; without Verapamil, at maximum concentration tested
  % kill on HCT15/PRLR w/o Verapamil: 99%
HCT-15 cells; 72 h incubation
  HCT-15 % Kill 72 h: 97.6%
HCT-15 cells; 144 h incubation
  HCT-15 % Kill 144 h: 99.7%
HCT-15 cells; Homo sapiens, 72 h incubation, read-out: HCT-15 IC50 72 h
  IC50: 0.00888 nM
HCT-15 cells; Homo sapiens, 144 h incubation, read-out: HCT-15 IC50 144 h
  IC50: 0.0295 nM

## CC[C@H](C)[C@@H]([C@@H](CC(=O)N1CCC[C@H]1[C@H](OC)[C@@H](C)C(=O)N[C@H](C)[C@@H](O)c1ccccc1)OC)N(C)C(=O)[C@@H](NC(=O)[C@@H](NC)C(C)C)C(C)C [MMAE, Monomethyl auristatin E, reference compound] (H-[NMeV]V[Dil][Dolaproine]-X1)
C4-2 cells [1]
  % kill: 99%
  IC50: 0.22 nM
C4-2 cells [2]
  IC50: 0.287 nM
  C4-2 % Kill: 93.7% and 93.7 ± 2.5%
MES-SA/MX2 cells; 72 h incubation
  MES-SA/MX2 % Kill 72 h: 65.6%
MES-SA/MX2 cells; 72 h incubation, read-out: MES-SA/MX2 IC50 72 h
  IC50: 37.3 nM
MES-SA/MX2 cells; 144 h incubation
  MES-SA/MX2 % Kill 144 h: 58.1%
MES-SA/MX2 cells; 144 h incubation, read-out: MES-SA/MX2 IC50 144 h
  IC50: 0.683 nM
HCT15 cells; with 5 ug/mL Verapamil
  HCT-15 + verapamil % Kill: 98.4 ± 0.5%
HCT15 cells; [4]
  IC50: 0.782 nM
HCT15 cells; without Verapamil
  HCT-15 % Kill: 97.1 ± 3.7%
HCT15 cells; without Verapamil, read-out: HCT-15 IC50
  IC50: 17.7 nM
HCT15 cells; IC50 without Verapamil divided by IC50 with Verapamil
  HCT-15 IC50/HCT-15+Verapamil IC50 ratio: 23.7
HCT15 cells; ratio of IC50 without Verapamil to IC50 with Verapamil
  HCT15 IC50/HCT-15 + Verapamil IC50: 23.7 ± 12.0
HL60/MX2 cells; 72 h incubation
  HL60/MX2 % Kill 72 h: 88.7%
HL60/MX2 cells; 72 h incubation, read-out: HL60/MX2 IC50 72 h
  IC50: 0.418 nM
HL60/MX2 cells; 144 h incubation
  HL60/MX2 % Kill 144 h: 99.6%
HL60/MX2 cells; 144 h incubation, read-out: HL60/MX2 IC50 144 h
  IC50: 0.164 nM
H69AR cells; 72 h incubation
  H69AR % Kill 72 h: 66.8%
H69AR cells; 72 h incubation, read-out: H69AR IC50 72 h
  IC50: 0.923 nM
H69AR cells; 144 h incubation
  H69AR % Kill 144 h: 92.7%
H69AR cells; 144 h incubation, read-out: H69AR IC50 144 h
  IC50: 0.683 nM
HCT-15 cells; 72 h incubation
  HCT-15 % Kill 72 h: 93.7%
HCT-15 cells; 72 h incubation, read-out: HCT-15 IC50 72 h
  IC50: 16.8 nM

From patent US12144864B2, “Tubulysins and protein-tubulysin conjugates” (Regeneron Pharmaceuticals, Inc., priority 2018, dated 2024)
